Data reported in patent US20090227587A1, “Pyrimidines as inhibitors of phosphoinositide-3-kinases (PI3K)” (Warner-Lambert Company LLC, priority 2003, published 2009).

Key:
[1] = tested on: DBA/1 LacJ mice, collagen induced arthritis; experiment: Murine collagen induced arthritis; format: in vivo; conditions: 30 mg/kg q.d. oral gavage for two weeks beginning on day 27, female DBA/1 LacJ mice
Protocol: Bovine type II collagen (University of Utah) was diluted with 0.01N acetic acid to a concentration of 2 mg/mL and emulsified with an equal volume of Freund's complete adjuvant (Difco, Detroit, Mich.) supplemented with 1 mg/mL Mycobacterium tuberculosis Hra37. Age-matched (8-12 weeks) female DBA/1 LacJ mice (Jackson Laboratories, Bar Harbor, Me.) were immunized with 100 μL of emulsion (100 μg collagen) intradermally at the base of the tail. On Day 28 after immunization, the mice were given 50 μg Lipopolysaccharide (Sigma Aldrich, St Louis, Mo.) intraperitoneally (IP) in 100 μL saline. The compound of Example 1 (4-Cycloheptyloxy-2-morpholin-4-yl-pyrimidine-5-carboxylic acid (2H-tetrazol-5-yl)-amide) was dosed at 30 mg/kg q.d. by oral gavage for two weeks beginning on day 27. The development of arthritis was assessed on Days 27, 31, 34, 37, and 41. A clinical score was given to each limb using the following scale: (0) normal, (1) erythema and edema, (2) joint distortion, (3) joint ankylosis. Edema measurements on front paws, rear paws, and ankles were taken using constant tension calipers (Dyer, Lancaster, Pa.). The compound of Example 1 at 30 mg/kg q.d. inhibited paw edema in this model by 52%, and clinical score by 35%.

[2] = biological target: T1, p101/p110γ protein (PI3Kγ) (Homo sapiens, UniProt P48736); experiment: PI3Kγ in vitro kinase assay; format: biochemical; conditions: purified recombinant p101/p110γ with G protein β1/γ2 subunits, 20 μM ATP, PIP2 lipid micelles
T1 construct: HA; made in house; host or cells: Spodoptera frugiperda (Sf9) cells, baculovirus co-infection
Protocol: Spodtera frugiperda cells, grown in ESF921 media, were co-infected with baculovirus expressing a glu-tagged p101 and baculovirus expressing an HA-tagged p110γ, at a 3:1 ratio of p101 baculovirus to p110γ baculovirus. Sf9 cells were grown to 1×10^7 total cells/mL in 10 L bioreactors and harvested 48-72 hours post infection. Samples of infected cells were then tested for expression of p101/p110γ PI3 kinase by immunoprecipitation and Western Blot analysis methods (see below).
To purify PI3Kγ, 4 volumes of room temperature hypotonic lysis buffer (1 mM MgCl2, 1 mM DTT, 5 mM EGTA, 1 mM Pefabloc, 0.5 μM aprotinin, 5 μM leupeptin, 2 μM pepstatin, 5 μM E64, pH 8) per gram of cell paste, was poured onto frozen cell pellets with stirring, then lysed in a nitrogen “bomb” at 400 psi (599HC T316, Parr Instrument Co, Moline, Ill.). NaCl was added to 150 mM, and sodium cholate was added to 1% and mixed for another 45 minutes. The lysates were clarified by centrifugation for 25 minutes at 14,000 rpm. The lysates were then loaded over anti-glu-linked Protein-G Sepaharose beads (Covance Research Products, Richmond, Calif.) using 20 mL resin/50 g cell paste. The column was washed with 15 volumes of wash buffer (1 mM DTT, 0.2 mM EGTA, 1 mM Pefabloc, 0.5 μM aprotinin, 5 μM leupeptin, 2 μM pepstatin, 5 μM E64, 150 mM NaCl, 1% sodium cholate, pH 8). PI3Kγ was eluted with 6 column volumes of wash buffer that contain 100 μg/mL of a peptide that competes for binding of the glu tag. The column fractions with the eluted protein (determined by taking OD280 readings) were collected and dialyzed in 0.2 mM EGTA, 1 mM DTT, 1 mM Pefabloc, 5 μM leupeptin, 0.5% sodium cholate, 150 mM NaCl, and 50% glycerol, pH 8. The fractions were stored at −80° C. until further use.
Spodtera frugiperda cells were coinfected with baculovirus expressing a glu-tagged G protein β1 and baculovirus expressing a G protein […], at a 1:1 ratio of glu-tagged G protein […] baculovirus to G protein β2 baculovirus. Sf9 cells are grown in 10 L bioreactors and harvested 48-72 hours post infection. Samples of infected cells were tested for G protein β1/β2 expression by Western Blot analysis, as described below. Cell lysates were homogenized and loaded onto a column of glu-tagged beads as in Biological Example 1 and competed off the column with a glu peptide and processed as described in Biological Example 1.
The inhibitory properties of the compounds in Table 1 were assayed in an in vitro PI3K assay. In a 96-well polypropylene plate, each well was spotted with 2 μL of 50 times the desired final concentration of compound in DMSO. Purified recombinant p101/p110γ protein (0.03 μg; ˜2.7 nM) and G protein β1/γ2 subunits (0.09 μg; ˜57.7 nM) for each reaction was combined in the assay buffer (30 mM HEPES, 100 mM NaCl, 1 mM EGTA, and 1 mM DTT). ATP and [γ-^32P-ATP] (0.09 μCi) were added to this mixture so that the final ATP concentration in the reaction was 20 μM. Lipid micelles were formed by sonicating phosphatidylinositol-4,5-diphosphate (PIP2), phosphatidylethanolamine (PE), and Na-cholate in the assay buffer for 10 minutes, adding MgCl2 and incubating on ice for 20 minutes, for final concentrations of 25 μM PIP2, 300 μM PE, 0.02% Na-cholate, and 10 mM MgCl2 in the reaction. The reactions were started by adding equal volumes lipid and enzyme mixture in a total volume of 50 μL, allowed to run for 20 minutes at room temperature, and stopped with 100 μL 75 mM H3PO4. The lipid product was transferred to a glass fiber filter plate and washed with 75 mM H3PO4 several times. The presence of radioactive lipid product (PIP3) was measured by adding Wallac Optiphase mix to each well and counting in a Wallac 1450 Trilux plate reader (PerkinElmer Life Sciences Inc., Boston, Mass. 02118). The IC50 for each compound tested is reported in μM in the Tables above.

[3] = tested on: Lewis rats, streptococcal cell wall-induced paw edema; experiment: SCW streptococcal cell wall-induced paw edema; format: in vivo; conditions: 10, 30 and 100 mg/kg q.d. oral gavage for four days beginning on day 21, female Lewis rats
Protocol: Female Lewis rats (˜150 g) received 6 μg SCW in 10 μl Dulbecco's PBS by an intraarticular injection to the right tibiotalar joint on day 0. On day 21, the recurrence response was initiated with 100 μg SCW (250 μl, i.v.). Vehicle (0.5% hydroxypropylmethylcellulose/0.2% Tween 80) or the compound of Example 1 (4-Cycloheptyloxy-2-morpholin-4-yl-pyrimidine-5-carboxylic acid (2H-tetrazol-5-yl)-amide) was given orally (10 ml/kg volume), q.d., 1 hr prior to SCW, i.v., and on subsequent days. Baseline volumes of the sensitized hind paw were measured by a mercury displacement plethysmometer before disease initiation on day 21, and subtracted from subsequent assessments (made 24 hrs after each dose) to determine the Δ value (the difference between paw volume prior to disease initiation on day 21 and the paw volume 24 hours after each dose). The compound of Example 1 was dosed at 10, 30 and 100 mg/kg q.d. by oral gavage for four days beginning on day 21.

T1 sequence (P48736 whole entry, species assumed): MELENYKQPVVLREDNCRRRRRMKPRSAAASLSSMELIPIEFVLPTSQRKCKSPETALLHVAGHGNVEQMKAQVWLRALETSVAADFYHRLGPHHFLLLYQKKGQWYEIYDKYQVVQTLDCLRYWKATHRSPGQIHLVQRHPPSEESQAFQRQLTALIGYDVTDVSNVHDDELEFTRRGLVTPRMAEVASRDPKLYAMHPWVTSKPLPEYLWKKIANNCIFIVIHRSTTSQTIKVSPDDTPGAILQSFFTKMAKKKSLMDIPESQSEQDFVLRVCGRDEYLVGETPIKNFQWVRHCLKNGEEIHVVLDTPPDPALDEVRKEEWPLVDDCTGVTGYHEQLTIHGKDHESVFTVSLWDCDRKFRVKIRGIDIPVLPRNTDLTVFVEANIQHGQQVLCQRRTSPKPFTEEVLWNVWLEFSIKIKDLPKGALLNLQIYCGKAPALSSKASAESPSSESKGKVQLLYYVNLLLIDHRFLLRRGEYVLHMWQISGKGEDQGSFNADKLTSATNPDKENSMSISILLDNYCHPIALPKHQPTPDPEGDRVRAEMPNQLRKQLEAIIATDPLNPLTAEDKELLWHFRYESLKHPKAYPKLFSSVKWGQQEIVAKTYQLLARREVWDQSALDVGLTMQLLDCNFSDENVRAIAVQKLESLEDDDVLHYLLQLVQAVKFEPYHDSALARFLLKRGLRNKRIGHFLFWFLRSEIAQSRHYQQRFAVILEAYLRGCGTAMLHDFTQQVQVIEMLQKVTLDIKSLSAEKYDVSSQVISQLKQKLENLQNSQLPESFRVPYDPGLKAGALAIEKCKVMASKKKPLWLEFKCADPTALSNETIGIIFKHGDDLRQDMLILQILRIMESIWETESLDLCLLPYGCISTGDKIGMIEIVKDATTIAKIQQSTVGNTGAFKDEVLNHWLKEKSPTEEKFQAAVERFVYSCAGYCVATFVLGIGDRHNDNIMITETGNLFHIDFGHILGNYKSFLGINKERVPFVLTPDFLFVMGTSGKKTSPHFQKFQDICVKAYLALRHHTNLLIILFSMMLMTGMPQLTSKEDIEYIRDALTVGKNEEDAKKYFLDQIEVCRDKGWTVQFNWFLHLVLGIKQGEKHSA
T1 sequence (Q8WYR1 whole entry partner, species assumed): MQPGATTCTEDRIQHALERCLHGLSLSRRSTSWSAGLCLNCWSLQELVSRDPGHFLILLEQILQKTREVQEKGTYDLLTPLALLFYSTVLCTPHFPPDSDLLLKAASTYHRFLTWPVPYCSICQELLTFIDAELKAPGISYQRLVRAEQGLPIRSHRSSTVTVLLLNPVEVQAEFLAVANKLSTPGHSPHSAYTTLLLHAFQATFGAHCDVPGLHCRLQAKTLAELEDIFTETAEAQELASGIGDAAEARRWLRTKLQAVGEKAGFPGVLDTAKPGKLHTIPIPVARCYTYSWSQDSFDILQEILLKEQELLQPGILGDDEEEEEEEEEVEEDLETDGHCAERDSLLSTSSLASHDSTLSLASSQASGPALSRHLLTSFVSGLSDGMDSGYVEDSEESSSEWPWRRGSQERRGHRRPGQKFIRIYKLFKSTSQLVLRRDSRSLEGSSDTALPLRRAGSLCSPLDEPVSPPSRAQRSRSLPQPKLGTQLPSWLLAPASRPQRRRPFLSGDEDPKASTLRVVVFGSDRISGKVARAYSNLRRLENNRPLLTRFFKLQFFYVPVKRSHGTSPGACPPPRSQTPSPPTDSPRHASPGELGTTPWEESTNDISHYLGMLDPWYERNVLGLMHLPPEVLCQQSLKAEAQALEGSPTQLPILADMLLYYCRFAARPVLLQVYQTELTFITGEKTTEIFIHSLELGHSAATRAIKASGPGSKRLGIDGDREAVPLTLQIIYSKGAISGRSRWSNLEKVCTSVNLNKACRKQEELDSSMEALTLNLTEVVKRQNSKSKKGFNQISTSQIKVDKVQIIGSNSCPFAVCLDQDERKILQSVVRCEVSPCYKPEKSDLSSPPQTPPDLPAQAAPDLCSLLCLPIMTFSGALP

O=C(Nc1nn[nH]n1)c1cnc(N2CCOCC2)nc1OC1CCCCCC1 [Example 1, 4-Cycloheptyloxy-2-morpholin-4-yl-pyrimidine-5-carboxylic acid (2H-tetrazol-5-yl)-amide]
inhibition of clinical score [1]: 35% | inhibition of paw edema [1]: 52% | IC50 [2]: 197 nM | ID50 for inhibition of paw edema [3]: 16.3 mg/kg
